Assay results: patent US20230226198A1, “Artemisinin Derivatives” (DA ZEN THERANOSTICS, INC., priority 2019, published 2023)
Entries after “also recorded” stand apart in the source; their conditions may differ.

Columns and labels:
[1] = tested on: human prostate tumors (22Rv1 cells); assay: Human prostate tumor model, subcutaneous 22Rv1 tumors in nude mice; format: in vivo, athymic nude mice
Method: Example 4 A/B: Human cancer cells are subcutaneously (s.c.) implanted (1×10^6) into 4- to 6-week-old athymic nude mice (National Cancer Institute). When tumor sizes in the mice reach between 1 and 6 mm in diameter as assessed by in vivo bioluminescence imaging or by palpation, mice are injected once or multiple times i.p. with the drug, e.g. DZ3a, DHA or o THAD. For mice bearing 22Rv1 tumors, DZ3a (2, 4, 8 and 16 mg/kg) or DHA (e.g. 4.7 mg/kg) is injected twice a week for 5.5 weeks. Whole body optical imaging is taken at 24 hours or as indicated using a Kodak Imaging Station 4000 MM equipped with fluorescent filter sets (excitation/emission, 800:850 nm), with a field of view of 120 mm in diameter, a frequency rate for NIR excitation light of 2 mW/cm^2, and the following camera settings; maximal gain, 2-2 binning, 1,024×1,024 pixel resolution, exposure time of 5 seconds. Live mice are alternatively/additionally imaged by an Olympus OV100 Whole Mouse Imaging System (excitation, 762 nm; emission, 800 nm; Olympus Corp.), containing a MT-20 light source (Olympus Biosystems) and DP70 CCD camera (Olympus). Before imaging, mice are anesthetized with isoflurane (2.5 units), and maintained in an anesthetized state during imaging. Alternatively, a THAD may be compared to DZ3a. […]

[2] = tested on: mitochondria and lysosomes of C4-2B MDVR cells; assay: Confocal microscopy of Mitotracker/Lysotracker staining (subcellular localization); format: cell-based, human
Method: Subcellular localization (mitochondria, lysosomes) may be performed as follows: Uptake of DZ3a, THAD, controls or other dyes into mitochondria and lysosomes of cancer cells is determined by virtue of each compound constituting a dye or comprising a dye moiety. Cells are plated on live-cell imaging chambers (World Precision Instrument) overnight. Cells are exposed to the dyes at different concentrations, and dye uptake is evaluated by a Perkin-Elmer Ultraview ERS spinning disc confocal microscope mounted on a Zeiss Axiovert 200 m inverted microscope equipped with a 37° C. stage warmer, incubator, and constant CO2 perfusion. A 60× or 100× Zeiss oil objective (numerical aperture, 1.4) is used for live cell images, and a Z-stack is created using the attached piezoelectric z-stepper motor. The 633-nm laser line of an […] (set at 60% power) is used to excite the dye. Light emission at 650 nm is detected and found to correlate directly with the dye concentrations in the cells. For comparative studies, the exposure time and laser intensity are kept identical for accurate intensity measurements. Pixel intensity is quantified using Metamorph 6.1 (Universal Imaging), and the mean pixel intensity is generated as gray level using the Region Statistics feature on the software. […]

C4-2B MDVR cells = assay: Seahorse XF mitochondrial function (OCR/ECAR); format: cell-based, human; details: 5 uM
Method: Example 5 C: To determine mitochondrial function of cancer cells (here C4-2B MDVR), the cells are treated with vehicle, DZ (5 uM), DHA (5 uM), and DZ-003 (5 uM) over 12 hours, and the oxygen consumption rate (OCR) from respiration and extracellular acidification rate (ECAR) from glycolysis of the live cells is determined in a metabolic chamber in a 24-well plate format using a Seahorse XF analyzer (Seahorse XFe24, Agilent, Calif.). Reagents (drugs/controls) are added to the wells just before start of the recording at time 0, and the effect of the drugs on the basal mitochondrial function is recorded by the analyzer for about 12 hours (720 minutes). All reagents used are Agilent reagents. Cells are seeded and cultured in Seahorse XF RPMI Medium, pH 7.4. The seeding rate is 8×10^5 for the cells to reach about 90% confluency within about 24 hours when the analysis is started. The protocol is essentially performed as per the standard protocol of the manufacturer, removing the medium, washing the cells once with XF Real-Time ATP Rate Assay Medium, then starting the measurement as per the instrument's pre-programming and subsequent real-time measurements of OCAR/ECAR. Preliminary experiments indicate that the THAD as described herein may have an increased effect compared to DZ3a.

MDVR cells = assay: C11-BODIPY (lipid peroxidation) and MitoSox (mitochondrial ROS) flow cytometry; format: cell-based, human; details: 8 h
Method: Example 5F: Cancer cells (here MDVR) are treated with DZ1, DHA and DZ-003 for 8 h, followed by C11-BODIPY staining for 30 min at 37° C. (lipid peroxidation) or MitoSox staining for 10 min at 37° C. […] Flow cytometry analysis is performed as described in example 5E above. […] Preliminary experiments indicate that the THAD as described herein may provide a similar or increased effects.

C[C@@H]1CC[C@H]2[C@@H](C)C(OC(=O)CCCCCN3/C(=C/C=C4\CCCC(/C=C/C5=[N+](CCCCS(=O)(=O)[O-])c6ccccc6C5(C)C)=C4Cl)C(C)(C)c4ccccc43)O[C@@H]3OC4(C)CC[C@@H]1[C@]32OO4 (stereo in doubt) [DZ3a]
inhibition of tumor volume increase ([1]; DZ-DHA-monoester 2 to 16 mg/kg, DHA 4.7 mg/kg, i.p. twice a week for 5.5 weeks, versus vehicle): similarly inhibit increase in tumor volume compared to the neg. control | tumor inhibition, lowest dose versus higher doses ([1]; about 2 mg/kg versus higher doses up to 16 mg/kg): shows better tumor inhibition than other higher doses | co-localization with mitochondria and lysosomes [2]: co-localizes with mitochondria and lysosomes; also recorded: exclusive targeting to mitochondria and lysosomes | time at which lowering of OCR starts (C4-2B MDVR cells): ≤ 250 min | time until which OCR continues to lower before sustained lowered OCR (C4-2B MDVR cells): about 500 minutes | lowering of OCR (in words) (C4-2B MDVR cells; over 12 hours): can greatly lower the mitochondrial oxygen consumption rate | mitochondrial oxygen consumption rate (OCR) after treatment (C4-2B MDVR cells; over 12 hours, from about 700-800 pmol/min): less than 300 pmol/min | lipid peroxidation (C11-BODIPY fluorescence) (MDVR cells): induces lipid peroxidation
